{"source": "patent US9145377B2", "about": "“G-quadruplex stabilising agent” (University College London, priority 2011, dated 2015)", "key": {"HIF-1 transactivation": {"test_system": "HIF-1 transactivation", "assay": "Luciferase reporter assay (hypoxia response element, HRE) in RCC4 cells", "assay_type": "cell-based, human", "conditions": "normoxia or hypoxia (1% oxygen), 4 h", "quoted_text": "A pGL3 firefly luciferase reporter plasmid containing the phosphoglycerate kinase hypoxia-responsive element was supplied by Professor P. Maxwell (University College London, UK) [1]. The empty pGL3 control plasmid and the pRL-CMV Renilla luciferase plasmids were obtained from Promega. […] Firefly and Renilla luciferase activities were measured using the Dual Luciferase Reporter Assay System (Promega) according to the manufacturer's instructions.\nIn FIG. 6(A) RCC4 cells were co-transfected with either a vector expressing luciferase under the control of multiple copies of the hypoxia response element (HRE; kindly donated by G. Mellillo, NCI) or an empty vector control (pGL3) in addition to a vector expressing renilla luciferase (to control for transfection efficiency). […] Luciferase activity was then measured using the Promega Dual Luciferase assay Kit and results are expressed as a percentage of the activity of untreated, normoxic cells."}, "renal carcinoma cells": {"test_system": "renal carcinoma cells", "assay": "Growth inhibition, sulforhodamine B (SRB) assay, 96 h exposure", "assay_type": "cell-based, human", "conditions": "normoxia (20% oxygen)", "description": "(§1) A498 human renal, 786-0 human renal, MCF-7 human breast, Mia-Pa-Ca human pancreatic, Panc-1 human pancreatic, and PC-3 human prostate cancer cells were obtained from American Type Culture Collection (Rockville, Md.). Human RCC4 and RCC4/VHL cells were obtained from Professor P. Maxwell (University College London, UK). RCC4 cells lack pVHL therefore express constitutively high levels of HIF-1α. These cells were stably transfected with a wild-type pVHL gene, as previously described. All cells were grown in humidified 95% air, 5% CO2 at 37° C. in Dulbecco's modified Eagle's medium (DMEM), RPMI or MEM medium supplemented with 10% fetal bovine serum (FBS) and 2 mM L-Glutamine according to advice from ATCC (all reagents were obtained from Gibco, Invitrogen, UK). HIF-1α and HIF-2α antibodies were obtained from BD Transduction Labs, AKT antibody was obtained from Cell Signalling Biotechnology, and lamin NC, actin, HIF-1β, HSP-90, and Raf-1 antibodies were from Santa Cruz Biotechnology."}, "[1]": {"assay": "Solubility limit in aqueous media (dose ranging, sterile dH2O)", "assay_type": "physicochemical", "conditions": "dissolved in sterile dH2O, intra-peritoneal dose ranging in CD1 mice", "method": "A dose range assay was performed in female CD1 mice, with an initial mean weight of 25 g (Harlan UK Ltd,)."}, "HIF-1α mRNA": {"test_system": "HIF-1α mRNA", "assay": "Reverse transcriptase PCR (qRT-PCR) of HIF-1α transcripts in RCC4 cells", "assay_type": "cell-based, human", "conditions": "4 h, normoxia", "quoted_text": "Total RNA was isolated from approximately 10^7 cells using the RNeasy kit (Qiagen, Crawley, UK) according to the manufacturer's protocol. HIF-1α transcripts were quantified using two-step, quantitative real time PCR (qRTPCR). First-strand cDNA synthesis was performed for each sample with a Protoscript M-MuLV Taq RT-PCR kit (New England Biolabs, MA, USA) using 1 μg total RNA and oligo-dT primers. qPCR was performed using Stratagene Brilliant III SYBR Green master mix in a Stratagene MX-3000P instrument (Agilent, Tex., USA) according to the manufacturer's instructions using 2 ng input cDNA and primers at 300 nM. […] Samples were normalised to β-actin. Differences in PCR efficiency were normalised using relative standard curves of cDNA pooled from all samples. P-values were determined for 2000 randomisations.\nCells were then lysed and RNA was prepared using a Qiagen RNeasy kit. RT PCR was then performed to determine relative levels of HIF-1α mRNA in each sample."}, "HIF-2α": {"test_system": "HIF-2α", "assay": "Western blotting for HIF-2α protein in 786-0 cells", "assay_type": "cell-based, human", "conditions": "hypoxia (1% oxygen), 4 h dose course", "description": "as §1\n(§2) Culture flasks were incubated for various times at 37° C. in humidified air, 5% CO2 (normoxia) or 1% O2, 5% CO2, 94% N2 (hypoxia) using an InVivo Hypoxia Workstation 400 with a Ruskin hypoxic gas mixer (Biotrace International). […]\n(§3) Western blotting was performed as described previously. Blots were quantified using ImageQuant software (Molecular Dynamics). […]"}, "HSP-90": {"test_system": "HSP-90", "assay": "Western blotting for HSP-90 in RCC4 and RCC4VHL cells", "assay_type": "cell-based, human", "conditions": "CL67 5×IC50, normoxia (20% oxygen)", "description": "as §1\n(§4) Western blotting was performed as described previously. Blots were quantified using ImageQuant software (Molecular Dynamics). Nuclear and cytoplasmic extracts were prepared using NE-PER Nuclear and Cytoplasmic Extraction Reagents (Pierce Biotechnology).\n(§5) Cells were then lysed and Western blotting was performed. Probing for HSP-90, Raf-1, AKT and actin (as a loading control)."}, "VEGF": {"test_system": "VEGF", "assay": "VEGF measurement in cell culture medium by ELISA", "assay_type": "cell-based, human", "conditions": "RCC4 cells, CL67 5×IC50 or dose indicated, 4 h or time indicated", "method": "(§6) Culture flasks were incubated for various times at 37° C. in humidified air, 5% CO2 (normoxia) or 1% O2, 5% CO2, 94% N2 (hypoxia) using an InVivo Hypoxia Workstation 400 with a Ruskin hypoxic gas mixer (Biotrace International). After incubation, cells were washed twice with cold PBS equilibrated with the same gas mixture. In some studies, medium was removed at the end of incubation and stored at […] for measurement of vascular endothelial growth factor (VEGF) levels."}, "HIF-1β": {"test_system": "HIF-1β", "assay": "Western blotting for HIF-1β protein", "assay_type": "cell-based, human", "conditions": "RCC4 or 786-0 cells, 4 h", "description": "as §1, §2, §3"}, "HIF-1α": {"test_system": "HIF-1α", "assay": "Western blotting for HIF-1α protein in RCC4 / RCC4VHL cells", "assay_type": "cell-based, human", "description": "as §1, §6, §4\nCells were then lysed and Western blotting was performed probing for HIF-1α, HIF-2α, HIF-1β, or lamin NC (as a loading control)."}, "Raf-1": {"test_system": "Raf-1", "assay": "Western blotting for Raf-1 in RCC4 and RCC4VHL cells", "assay_type": "cell-based, human", "conditions": "CL67 5×IC50, normoxia (20% oxygen)", "description": "as §1, §4, §5"}, "AKT": {"test_system": "AKT", "assay": "Western blotting for AKT in RCC4 and RCC4VHL cells", "assay_type": "cell-based, human", "conditions": "CL67 5×IC50, normoxia (20% oxygen)", "description": "as §1, §4, §5"}}}
{"smiles": "CCN(CC)CC(=O)Nc1cccc(-n2cc(-c3ccc4ccc(-c5cn(-c6cccc(NC(=O)CN(CC)CC)c6)nn5)cc4c3)nn2)c1", "note": "[CL67, N,N′-((4,4′-(Naphthalene-2,7-diyl)bis(1H-1,2,3-triazole-4,1-diyl))bis(3,1-phenylene))bis(2-(diethylamino)acetamide)]", "values": [{"measurement": "HIF-1 transactivation (HRE luciferase activity)", "setting": "HIF-1 transactivation", "value": "inhibited"}, {"measurement": "sensitivity of renal cancer cells to inhibition of cell growth compared to other cancer cell lines (breast, pancreatic, prostate)", "setting": "renal carcinoma cells", "value": "enhanced sensitivity"}, {"measurement": "solubility limit of the drug in aqueous media", "setting": "[1]", "value": 10, "unit": "mg/kg"}, {"measurement": "relative expression of HIF-1α mRNA compared to untreated control cells (RT PCR)", "setting": "HIF-1α mRNA", "value": "inhibits formation of HIF-1α mRNA"}, {"measurement": "melting point", "value": "97 to 99", "unit": "°C"}, {"measurement": "HIF-2α protein level (Western blot)", "setting": "HIF-2α", "value": "inhibited"}, {"measurement": "expression of HSP90 (Western blot)", "setting": "HSP-90", "value": "No differences"}, {"measurement": "VEGF levels in medium (ELISA)", "setting": "VEGF", "value": "inhibited"}, {"measurement": "HIF-1β protein level (Western blot)", "setting": "HIF-1β", "value": "did not affect"}, {"measurement": "HIF-1α protein (Western blot) in RCC4VHL cells", "setting": "HIF-1α; RCC4VHL cells (stably transfected with pVHL), 0, 1, 5 or 10×IC50, normoxia or hypoxia (1% oxygen)", "value": "inhibited"}, {"measurement": "HIF-1α protein (Western blot) in RCC4 cells (lacking pVHL)", "setting": "HIF-1α; RCC4 cells, 0, 1, 5 or 10×IC50, normoxia (20% oxygen) or hypoxia (1% oxygen)", "value": "inhibited"}, {"measurement": "HIF-1α protein level (Western blot)", "setting": "HIF-1α; RCC4 cells, normoxia, 4 h dose course, time course at 5×IC50", "value": "inhibited"}, {"measurement": "expression of Raf-1 (Western blot)", "setting": "Raf-1", "value": "No differences"}, {"measurement": "expression of AKT (Western blot)", "setting": "AKT", "value": "No differences"}]}
